# Reference: patent publication US10626107B2, “Crystal form, salt type of substituted 2-hydro-pyrazole derivative and preparation method therefor” (CHIA TAI TIANQING PHARMACEUTICAL GROUP CO., LTD., priority 2016, dated 2020)
# Key:
# [1] = Study on the hygroscopicity (dynamic vapor sorption); type: physicochemical; settings: 25° C. and 80% RH
# Protocol: Model of instrument: SMSDVS Advantage dynamic vapor sorption analyzer
# Test conditions: A sample (10 to 15 mg) was placed in a DVS sample pan for testing.
# DVS parameters: • Temperature: 25° C. • Balance: dm/dt=0.01%/min (minimum: 10 min, maximum: 180 min) • Drying: drying for 120 min at 0% RH • Test gradient of RH (%): 10% • Test gradient range of RH (%): 0%-90%-0%
# [2] = tested on: human breast cancer MCF-7 subcutaneous xenograft tumor; type: in vivo; settings: 18.75 mg/kg PO QD × 3W
# Description: Cell line-derived xenograft (CDX) BALB/c nude mice that were female, 6- to 8-week old, weighed 20 g, and subcutaneously implanted with human tumor cell line derived from MCF-7 breast cancer patients were used. A total of 150 mice were needed, which were purchased from Beijing Vital River Laboratory Animal Technology Co., Ltd.
# BALB/c nude mice that were female, 6- to 8-week old, and weighed approximately 20 g were used. The mice were maintained in separate ventilated cages (10 mice per cage) in a special pathogen-free environment. All the cages, bedding and water were disinfected prior to use. All the animals were free to access a standard certified commercial laboratory diet. A total of 150 mice were purchased from Beijing Vital River Laboratory Animal Technology Co., Ltd. for research. Each mouse was implanted subcutaneously with an estrogen tablets (0.18 mg/tablet, 60-day sustained release) in the left back. After 3 days, each mouse was implanted with tumor cells (10×10^6 in 0.2 mL of phosphate buffer) subcutaneously in the right back for tumor growth. Administration was started when the average tumor volume reached about 150 to 200 mm^3. The test compounds were orally administered daily, and the administration dosages were as shown in the above table. The tumor volumes were measured twice a week using a two-dimensional caliper. The volumes were expressed in cubic millimeters and calculated by the following formula: V=0.5 a×b^2, wherein a and b were the long diameter and short diameter of a tumor, respectively. The anti-tumor efficacy was determined by dividing the average increase of the tumor volumes of the animals treated with a compound by the average increase of the tumor volumes of the animals without being treated with the compound.
structure (smiles),measurement,setting,value
CC(C)c1c2cc(-c3nc(Nc4ccc(N5CCNCC5)cn4)ncc3F)ccc2nn1C.O=C(O)/C=C\C(=O)O [A crystal form of compound WX_1],hygroscopic weight gain,[1],1.48%
same,Tumor volume Day 0,[2]; Day 0,153 mm^3
same,Tumor volume Day 7,[2]; Day 7,156 mm^3
same,Tumor volume Day 14,[2]; Day 14,136 mm^3
same,Tumor volume Day 20,[2]; Day 20,98 mm^3
